Data taken from patent US20050008687A1, “Metal-porphyrin-complex-embedded liposomes, production process thereof, and medicines making use of the same” (Makoto Yuasa, priority 2003, published 2005).
Like-named read-outs stand apart in the source and are kept apart here. Each block holds one compound with its values, some of them ahead of it.

What was measured:
[1] = test system: mouse lung cancer cells [Lewis Lung Carcinoma (LLC)]; assay: Anticancer characteristic test: cytotoxicity test (apoptosis test) by the Alamar Blue technique; format: cell-based; conditions: FIG. 3
Experimental: Anticancer characteristics of a Pr-embedded liposome according to the present invention were examined by a cytotoxicity test (apoptosis test) making use of the Alamar Blue technique.
Employed were the FeT2 MPyP+4SAS-embedded DMPC liposome system (Invention Product 4, FeT2 MPyP concentrations: 0, 12.5, 25, 50, 100 μM) as a test sample and its corresponding cationic metalloporphyrin complex (FeT2 MPyP) and ion complex system (FeT2 MPyP+4SAS) as reference samples. As cells, on the other hand, mouse lung cancer cells [Lewis Lung Carcinoma (LLC), Riken Gene Bank] were used.
In the test, the mouse lung cancer cells were cultured in DMEM medium with 10% FBS added therein. Subsequent to determination of the cell count and adjustment of the cell concentration, the resulting cell suspension was added to the individual wells of a 96-well plate (100 μL/well, cell count: 1×10^4 cells/well), followed by incubation for 24 hours in a carbon dioxide incubator (CO2:5%). After the medium was removed from the plate, sample solutions of the respective concentrations (100 μL/well, sample concentrations: 0 to 100 μM), said sample solutions having had been prepared in advance, were added, followed by further incubation for 24 hours in the CO2 incubator.
An Alamar Blue solution, which had been sterilized by filtration, was added at 10 μL/well, followed by incubation for 5 hours. Subsequently, absorbance measurements (measurement wavelength: 570 nm, and reference wavelength: 600 nm) were conducted by using a microplate reader.
Anticancer characteristics of Pr-embedded liposomes according to the present invention were examined by a cytotoxicity test (apoptosis test) making use of the Alamar Blue technique as in Example 15.
As test samples, various Pr-embedded liposomes were used (metalloporphyrin complex concentrations: 0, 12.5, 25, 50, 100 μM). As reference samples, on the other hand, the components of the Pr-embedded liposomes, that is, the metalloporphyrin complexes (concentrations: 0, 12.5, 25, 50, 100 μM) and liposomes (concentrations: 2500, 5000, 10000, 20000 μM) were employed (the concentrations of both of the components were set corresponding to the concentrations of the Pr-embedded liposomes).
Provided as comparative samples were cisplatin (CDDP; concentrations: 0, 10, 20, 40, 80 μM) and mitomycin C (MMC; concentrations: 0, 7.5, 15, 30, 60 μM), which are anticancer agents employed at present. A test was conducted as in Example 15, and the following results were obtained.
Anticancer characteristics of pH-sensitive, Pr-embedded liposomes were examined by a cytotoxicity test (apoptosis test) making use of the Alamar Blue technique as in Example 15. […]

[2] = SOD activity (O2-. scavenging) by the stopped-flow method; format: biochemical; conditions: Table 8
Experimental: The SOD activity (in other words, O2^−. scavenging activity) of each Pr-embedded liposome was evaluated by the stopped-flow method proposed by Riley et al. [D. P. Riley, W. L. Rivers, and R. H. Weiss, Anal. Biochem., 196, 344 (1991)]. Specifically, the evaluation was conducted as will be described hereinafter. At 36° C., a solution of potassium superoxide as an O2^−. production source in dimethylsulfoxide and one of 60 mM HEPES/HEPESNa buffered solutions (pH 8.1), which contained one of the Pr-embedded liposomes at various concentrations, were promptly mixed, and the decay in absorbance at 245 nm due to O2^−. (the decay curve of O2^−. scavenging reaction) was measured with time. From the decay curve, a “ln (absorbance)-versus-time” relationship was determined, and further, an apparent rate constant was calculated from the slope of the relationship. From the slope of the “concentration of metalloporphyrin complex-versus-apparent rate constant” relationship, the rate constant (Kcat) of the O2^−. scavenging reaction was finally determined. As a reference, ion complexes (MnT4 MPyP+1SAS and MnT4 MPyP+4SAS) were also evaluated likewise in SOD activity.
Various metalloporphyrin complexes, which represent Pr-embedded liposomes, were compared in SOD activity. […] Incidentally, the samples were prepared and measured as in Examples 19 and 20.

[3] = SOD activity (O2-. scavenging) by the cytochrome c method; format: biochemical; conditions: Table 8
Experimental: The SOD activity (in other words, O2^−. scavenging activity) of each Pr-embedded liposome was evaluated by the cytochrome c method proposed by Mccord and Fridovich or Butler et al. [(1) J. M. Mccord and I. Fridovich, J. Biol. Chem., 244, 6049 (1969) and (2) J. Butler, W. H. Kopenol, E. Margoliash, J. Biol. Chem., 257, 10747 (1982)]. Specifically, the evaluation was conducted as will be described hereinafter. Solutions (Solutions A) of each Pr-embedded liposome were prepared at five or more concentration levels of from 0 to 1,000 μM in terms of the concentration of the metalloporphyrin. […] With the resultant mixture, a 7 μg/mL aqueous catalase solution (0.1 mL) and a 25 U/mL aqueous xanthine oxidase (XOD) solution (0.3 mL) were promptly mixed, and UV-vis was measured with time at 550 nm (absorption peak based on the formation of ferrocytochome c)(the final concentrations of the respective components in the test solution were as follows: the metal porphyrin complex, 0 to 100 SM; xanthine, 0.05 mM; XOD, 2.5U/mL; cytochrome c, 10 μM; catalase, 0.23 μg/mL). […] Finally, the concentration (IC50) of each metalloporphyrin complex at IC=50% was determined from the concentration of metalloporphyrin-versus-IC” relationship, and the IC50 was used as an index of the SOSD-activating effect of the metalloporphyrin complex (smaller IC50 indicates higher SOD activity). […]

[4] = literature value reported by Ohse, Kawakami et al.; Table 7; cited from earlier work
[5] = literature value reported by Fridovich et al.; Table 6; cited from earlier work

Compound: [NH2][Pt]([NH2])([Cl])[Cl] [CDDP, cisplatin, reference compound]
viability of LLC versus added concentration [1]: dropped as the added concentration increased

Compound: C[n+]1ccccc1-c1c2nc(c(-c3cccc[n+]3C)c3ccc([n-]3)c(-c3cccc[n+]3C)c3nc(c(-c4cccc[n+]4C)c4ccc1[n-]4)C=C3)C=C2.[Fe+2] [FeT2 MPyP, iron[5,10,15,20-tetrakis(2-methylpyridyl)porphyrin]]
viability of LLC versus added concentration [1]: dropped as the added concentration increased | viability of LLC compared with CDDP and MMC ([1]; FeT2 MPyP concentrations of 25 μM and higher): lower than those in the cases of CDDP and MMC

Compound: CO[C@@]12[C@H](COC(N)=O)C3=C(C(=O)C(C)=C(N)C3=O)N1C[C@@H]1N[C@@H]12 [MMC, mitomycin C, reference compound]
viability of LLC versus added concentration [1]: dropped as the added concentration increased

IC50 [3]: 740 nM
Compound: C[n+]1ccc(-c2c3nc(c(-c4cc[n+](C)cc4)c4ccc([n-]4)c(-c4cc[n+](C)cc4)c4nc(c(-c5cc[n+](C)cc5)c5ccc2[n-]5)C=C4)C=C3)cc1.[Mn+2] [MnT4MPyP, manganese[5,10,15,20-tetrakis(4-methylpyridyl)porphyrin]]
Kcat [2]: 2.2e+07 M⁻¹ s⁻¹ | Kcat [4]: 2.2e+07 M⁻¹ s⁻¹ | IC50 [5]: 700 nM
